Test results published in US8492521B2, “Oxidative stress responsive apoptosis inducing protein eIF5A” (priority 2008, dated 2013).

System: rat myocardial ischemia/reperfusion injury
Experiment: Rat myocardial ischemia/reperfusion injury, extent of myocardial infarction (TTC staining)
Assay type: in vivo
Settings: 1 mg/kg everyday, peritoneal, five days to the day before; 30 min ischemia, 24 hours reperfusion; control group approx. 35.6%
Experimental: Rats (male, 250 to 280 g) were subjected to coronary artery ligation according to J. Pathol. 180, 305-310 (1996). Briefly, rats were anesthetized with sodium pentobarbital (40 mg Kg^−1, intraperitoneally), intubated, and ventilated with room air (tidal volume, 20 ml/Kg, […]) with a respirator (SN-480-7, Shinano Manufacturing Co., Ltd., Tokyo, Japan). After lateral thoracotomy and pericardiectomy, a 6-0 silk stitch was placed near the intramyocardial location of the left coronary artery beneath the left atrial appendage. Coronary artery occlusion was performed by pressing a short length of tube over the ends of the suture and clamping it firmly against the heart. Reperfusion was achieved by removing the clamp. The standard limb lead II electrocardiogram was monitored continuously. The ischemia and reperfusion of the regional myocardium were confirmed by following the changes of the ST segment level on the electrocardiogram and observing the change in the color of the myocardium.
eIF5A is deoxyhypusinated by deoxyhypusine synthase (DHS) in the cytoplasm (deoxyhypusine eIF5A) and then hypusinated by deoxyhypusine hydroxylase (DOHH) (hypusinated eIF5A). eIF5A is further secreted extracellularly by an oxidative stress stimulus as secreted eIF5A and acquire the apoptosis-inducing activity. […]

N=C(N)NCCCCCCCN [GC7, N1-guanyl-1,7-diaminoheptane]
extent of myocardial infarction: approx. 13.4%
